PMC6270201, “Eco-Friendly Synthesis and Antiproliferative Evaluation of Some Oxygen Substituted Diaryl Ketones” (Molecules, 2013)

Assays:
[1] = system: Balb/3T3 non-tumor fibroblasts; test: MTT reduction assay, non-tumor fibroblasts; format: cell-based; settings: Mus musculus, 48 h incubation, mean of at least three experiments, read-out: EC50 ± SEM BALB/3T3
Procedure: (§1) The oxygen-substituted diaryl ketones 3–23 were evaluated for their in vitro antiproliferative activity on a panel of four cell lines, including non-tumor fibroblasts (Balb/3T3) and three human-derived tumor cell lines, namely DU-145 (prostate), T24 (bladder) and MCF7 (breast), using the conventional microculture tetrazolium reduction assay.
(§2) These values were calculated from their effects on MTT reduction in three cancer cell lines and Balb/3T3 non transformed mouse fibroblasts as a function of their concentration during 48 h of incubation. All three cancer cell lines were similarly sensitive to these compounds. […] The biological activity differences of compounds 12 and 22 with respect to their analogues could be attributed to the 3,4,5-trimethoxy substitution on the A-phenyl ring. According to literature precedents, the 3,4,5-trimethoxyphenyl ring is considered essential for the antitubulin activity of a broad variety of antimitotic compounds [36, 38, 39, 40, 41, 42, 43, 44, 45]. […] In this context, only compound 22 have a good mean selectivity index (2.45).
(§3) Human cancer cell lines (T24, DU-145, MCF7) were cultured in high-glucose Dulbecco's modified Eagle medium (Gibco, Grand Island, NY, USA) supplemented with 10% foetal calf serum, penicillin (100 U/mL), and streptomycin (100 μg/mL). Balb/3T3 cells (normal mouse fibroblasts) were cultured in the same medium, except that the foetal calf serum was replaced by 10% newborn calf serum. All cultures were kept at 37 °C in 95% air/5% CO2 at 100% humidity. Phosphate-buffered saline (PBS) was purchased from Gibco. Cells were incubated at the indicated times at 37 °C with or without hydroquinones at various concentrations.
(§4) The cytotoxicity of the bis aryl ketones was assessed by following the reduction of MTT (3-(4,5-dimethylthiazolyl-2)-2,5-diphenyltetrazolium bromide) to formazan blue. Briefly, cells were seeded into 96-well plates at a density of 10,000 cells/well for 24 h and then incubated for 48 h with or without the compounds. Cells were then washed twice with warm PBS and incubated with MTT (0.5 mg/mL) for 2 h at 37 °C. Incubation medium was thereafter discarded and the blue formazan crystals were solubilized by adding 100 μL DMSO/well. The colour solution was subsequently read at 550 nm. Results are expressed as % of MTT reduction compared to untreated control conditions. The calculation of EC50 values was performed by using GraphPad Prism software (San Diego, CA, USA).

[2] = system: Balb/3T3 fibroblasts vs T24, DU-145 and MCF7 tumor cells; test: Mean selective index, fibroblasts versus tumor cells; format: cell-based; settings: EC50 values fibroblasts/EC50 values tumor cells
Procedure: These values were calculated from their effects on MTT reduction in three cancer cell lines and Balb/3T3 non transformed mouse fibroblasts as a function of their concentration during 48 h of incubation.

[3] = system: MCF7 (breast) human-derived tumor cell line; test: MTT reduction antiproliferative assay, MCF7 breast cells; format: cell-based; settings: 48 h incubation, mean of at least three experiments, read-out: EC50 ± SEM MCF-7
Procedure: as §1, §2, §3, §4

[4] = system: DU-145 (prostate) human-derived tumor cell line; test: MTT reduction antiproliferative assay, DU-145 prostate cells; format: cell-based; settings: 48 h incubation, mean of at least three experiments, read-out: EC50 ± SEM DU-145
Procedure: as §1, §2, §3, §4

[5] = system: T24 (bladder) human-derived tumor cell line; test: MTT reduction antiproliferative assay, T24 bladder cells; format: cell-based; settings: 48 h incubation, mean of at least three experiments, read-out: EC50 ± SEM T24
Procedure: as §1, §2, §3, §4

Row | SMILES | EC50 [1] [µM] | melting point [°C] | MSI: Mean Selective Index [2] | EC50 [3] [µM] | EC50 [4] [µM] | EC50 [5] [µM]
1 | COc1cccc(C(=O)c2cc(O)ccc2O)c1 [compound 7, (2,5-Dihydroxyphenyl)(3'-methoxyphenyl)methanone] | 118 ± 19.5 | 97 to 98 | 0.68 | 154 ± 12.3 | 166 ± 15.8 | 210 ± 20.5
2 | Cc1ccccc1C(=O)c1cc(O)ccc1O [compound 4, (2,5-Dihydroxyphenyl)(2'-methylphenyl)methanone] | 184 ± 17.6 | 104 to 105 | 1.06 | 181 ± 15.8 | 172 ± 19.7 | 172 ± 13.2
3 | COc1cc(C(=O)c2cc(O)c3ccccc3c2O)ccc1O [compound 21, (1,4-Dihydroxynaphthalen-2-yl)(4'-hydroxy-3'-methoxyphenyl)methanone] | 15.7 ± 3.9 | 221 to 222 | 0.45 | 15.7 ± 4.6 | 89 ± 7.3 | 86.6 ± 9.6
4 | COc1cccc2c1C(=O)c1c(O)c3c(c(O)c1C2=O)C[C@@](O)(C(=O)CO)C[C@@H]3O[C@H]1C[C@H](N)[C@H](O)[C@H](C)O1 [DOX, doxorubicin, reference compound] | 0.19 ± 0.01 | – | 0.44 | 0.33 ± 0.05 | 0.42 ± 0.03 | 0.65 ± 0.07
5 | COc1cc(C(=O)c2cc(O)ccc2O)cc(OC)c1O [compound 13, (2,5-Dihydroxyphenyl)(4'-hydroxy-3',5'-dimethoxyphenyl)methanone] | 19.1 ± 3.1 | 200 to 201 | – | > 350 | 113 ± 10.7 | > 350
6 | COc1cccc(C(=O)c2cc(O)c3ccccc3c2O)c1 [compound 17, (1,4-Dihydroxynaphthalen-2-yl)(3'-methoxyphenyl)methanone] | 109 ± 11.1 | 149 to 150 | 0.82 | 128 ± 13.6 | 139 ± 11.3 | 133 ± 12.4
7 | COc1cc(C(=O)c2cc(O)ccc2O)ccc1O [compound 11, (2,5-Dihydroxyphenyl)(4'-hydroxy-3'-methoxyphenyl)methanone] | 78 ± 9.3 | 221 to 222 | 0.47 | 177 ± 19.4 | 168 ± 15.9 | 154 ± 14.5
8 | COc1ccc(OC)c(C(=O)c2cc(O)c3ccccc3c2O)c1 [compound 19, (1,4-Dihydroxynaphthalen-2-yl)(2',5'-dimethoxyphenyl)methanone] | 100 ± 8.9 | 160 to 161 | 0.77 | > 310 | 129 ± 17.2 | 130 ± 10.1
9 | COc1ccc(OC)c(C(=O)c2cc(O)ccc2O)c1 [compound 9, (2,5-Dihydroxyphenyl)(2',5'-dimethoxyphenyl)methanone] | 43.7 ± 7.6 | 135 to 136 | 0.29 | 164 ± 13.8 | 130 ± 12.5 | 150 ± 18.4
10 | Cc1ccc(C(=O)c2cc(O)ccc2O)cc1 [compound 6, (2,5-Dihydroxyphenyl)(4'-methylphenyl)methanone] | 78.3 ± 6.4 | 135 to 136 | 0.57 | 142 ± 15.3 | 101 ± 9.5 | 209 ± 19.5
11 | COc1cc(C(=O)c2cc(O)c3ccccc3c2O)cc(OC)c1O [compound 23, (1,4-Dihydroxynaphthalen-2-yl)(4'-hydroxy-3',5'-dimethoxyphenyl)methanone] | 99.6 ± 7.5 | 173 to 174 | 0.84 | 130 ± 14.8 | 114 ± 9.5 | 112 ± 9.3
12 | COc1cc(C(=O)c2cc(O)ccc2O)cc(OC)c1OC [compound 12, (2,5-Dihydroxyphenyl)(3',4',5'-trimethoxyphenyl)methanone] | 1.5 ± 0.4 | 68 to 70 | 0.57 | 53.6 ± 6.7 | 1.2 ± 0.6 | 3.6 ± 1.4
13 | COc1ccc(C(=O)c2cc(O)ccc2O)cc1OC [compound 10, (2,5-Dihydroxyphenyl)(3,4-dimethoxyphenyl)methanone] | 35.4 ± 4.7 | 79 to 81 | 0.23 | 183 ± 17.7 | 140 ± 13.6 | 147 ± 19.2
14 | Cc1ccc(C(=O)c2cc(O)c3ccccc3c2O)cc1 [compound 16, (1,4-Dihydroxynaphthalen-2-yl)(4'-methylphenyl)methanone] | 139 ± 15.2 | 150 to 151 | 0.98 | 134 ± 14.9 | 158 ± 13.7 | 135 ± 12.8
15 | COc1ccc(C(=O)c2cc(O)ccc2O)cc1 [compound 8, (2,5-Dihydroxyphenyl)(4'-methoxyphenyl)methanone] | 85.2 ± 9.7 | 144 to 145 | 0.49 | 191 ± 17.5 | 170 ± 15.5 | 168 ± 12.2
16 | COc1ccc(C(=O)c2cc(O)c3ccccc3c2O)cc1OC [compound 20, (1,4-Dihydroxynaphthalen-2-yl)(3',4'-dimethoxyphenyl)methanone] | 2.8 ± 0.6 | 212 to 213 | 0.11 | 12.2 ± 3.8 | 61.8 ± 5.6 | 46.8 ± 5.1
17 | O=C(c1ccccc1)c1cc(O)ccc1O [compound 3, (2,5-Dihydroxyphenyl)(phenyl)methanone] | 38.5 ± 5.5 | 121 to 122 | 0.20 | 190 ± 19.2 | 205 ± 21.5 | 186 ± 20.4
18 | Cc1cccc(C(=O)c2cc(O)ccc2O)c1 [compound 5, (2,5-Dihydroxyphenyl)(3'-methylphenyl)methanone] | 100 ± 9.5 | 119 to 120 | 0.49 | 226 ± 24.2 | 186 ± 17.8 | 202 ± 15.9
19 | CO[C@@]12[C@H](COC(N)=O)C3=C(C(=O)C(C)=C(N)C3=O)N1C[C@@H]1N[C@@H]12 [MIT, mitomycin C, reference compound] | 27.3 ± 3.3 | – | – | 16.8 ± 2.9 | 14.3 ± 2.6 | 42.2 ± 5.8
